Measurements taken from US11179501B2, “Bone morphogenetic protein pathway activation, compositions for ossification, and methods related thereto” (Emory University, priority 2011, dated 2021).
Where a name gives a salt, the structure may show the parent alone.

Tested on: C2C12 cells
Experiment: Alkaline phosphatase (ALP) assay: potentiation of BMP-2-induced ALP activity
Settings: C2C12 cells; for cell lifting from culture plates: ALP assay
Protocol: Their activity was evaluated by determining the potentiation of alkaline phosphatase activity in sub-optimal doses of BMP in the presence or absence of exogenously added noggin.
The BMP-potentiating activities of compounds may be evaluated by monitoring several markers of the osteoblastic phenotype corresponding to various time points during phenotype differentiation of C2C12 cells towards terminally differentiated osteoblasts.
The C2C12 cells at passages 5 to 10 were subcultured in T-75 cm^2 flasks in DMEM supplemented with 10% FBS at 37° C. in 5% CO2 with humidification. When the flasks reached 80% confluence, the cells were trypsinized and seeded in triplicate.
The C2C12 cells were plated at 200,000 cells/well in 6-well plates and grown overnight in DMEM containing 10% FBS. On day 2, the culture medium was replaced with DMEM containing 2% FBS and the cells were treated with various concentrations of compound for 24 hours. On day 3, the culture medium was replaced with DMEM containing 2% FBS and the cells were treated with 50 ng/ml of BMP-2 and various concentrations of compound for 72 hours. The cells were washed with phosphate-buffered saline (PBS) and lysed by addition of lysis buffer (10 mM Tris-HCl pH 8.0, 1 mM MgCl2 and 1.0% Triton X-100). The cell lysates were centrifuged for 5 minutes at 13,000×g. The supernatant was removed and the aliquots were assayed for ALP activity and protein amount. The ALP activity was measured in triplicate using an ALP assay kit (Sigma-Aldrich, St. Louis, Mo.) in microtiter plates. The protein amount was determined with Bio-Rad protein assay reagent (Bio-Rad, Hercules, Calif.) using bovine serum albumin (BSA) as a standard. The ALP activity (nmoles of p-nitrophenol per ml) was normalized to the protein amount (nmoles of p-nitrophenol per μg).

cell lifting from culture plates | Compound | Fold-increase of BMP-induced ALP (over BMP alone control)
 | C#CC(c1ccccc1)(c1ccccc1)n1ccnc1 [1-(1,1-diphenylprop-2-yn-1-yl)-1H-imidazole] | 7.0
caused cell lifting from culture plates | C=C1/C(=C\C=C2/CCC[C@]3(C)[C@@H]([C@H](C)/C=C/[C@@H](O)C4CC4)CC[C@@H]23)C[C@@H](O)C[C@@H]1O [Calcipotriol, calcipotriol] | 
 | Nc1ncn([C@H]2C[C@H](O)[C@@H](CO)O2)c(=O)n1 [Decitabine] | 6.0
caused cell lifting from culture plates | CCCCCCNC(=O)n1cc(F)c(=O)[nH]c1=O [carmofur, 5-fluoro-N-hexyl-2,4-dioxo-3,4-dihydropyrimidine-1(2H)-carboxamide] | 
caused cell lifting from culture plates | Clc1ccc(COC(Cn2ccnc2)c2ccc(Cl)cc2Cl)cc1 (stereo not drawn) [Econazole nitrate, econazole nitrate] | 
 | CC[C@@]1(O)C(=O)OCc2c1cc1n(c2=O)Cc2cc3c(N)cccc3nc2-1 [9-aminocamptothecin] | 10.0
 | CCCCC(=O)OCC(=O)[C@]1(O)Cc2c(O)c3c(c(O)c2[C@@H](O[C@H]2C[C@H](NC(=O)C(F)(F)F)[C@H](O)[C@H](C)O2)C1)C(=O)c1c(OC)cccc1C3=O [Valrubicin] | 3.0
caused cell lifting from culture plates | CCC(C)n1ncn(-c2ccc(N3CCN(c4ccc(OCC5COC(Cn6cncn6)(c6ccc(Cl)cc6Cl)O5)cc4)CC3)cc2)c1=O (stereo not drawn) [itraconazole, 4-(4-(4-(4((2((1H-1,2,4-triazol-1-yl)methyl)-2-(2,4-dichlorophenyl)-1,3-dioxolan-4-yl)methoxy)phenyl)piperazin-1-yl)phenyl)-1-(sec-butyl)-1H-1,2,4-triazol-5(4H)-one] | 
caused cell lifting from culture plates | COC(=O)Nc1nc2cc(C(=O)c3ccc(F)cc3)ccc2[nH]1 [flubendazole] | 
 | CO[C@@]12[C@H](COC(N)=O)C3=C(C(=O)C(C)=C(N)C3=O)N1C[C@@H]1N[C@@H]12 [Mitomycin C] | 12.0
caused cell lifting from culture plates | CCC1=C[C@@H]2CN(C1)Cc1c([nH]c3ccccc13)[C@@](C(=O)OC)(c1cc3c(cc1OC)N(C)[C@H]1[C@@](O)(C(=O)OC)[C@H](OC(C)=O)[C@]4(CC)C=CCN5CC[C@]31[C@@H]54)C2 [Vinorelbine tartrate] | 4.0
 | Cc1ccc(Nc2nccc(N(C)c3ccc4c(C)n(C)nc4c3)n2)cc1S(N)(=O)=O [Pazopanib] | 2.5
caused cell lifting from culture plates | O=c1[nH]cc(F)c(=O)[nH]1 [5-fluorouracil] | 
 | CC[C@]1(O)C[C@H]2CN(CCc3c([nH]c4ccccc34)[C@@](C(=O)OC)(c3cc4c(cc3OC)N(C=O)[C@H]3[C@@](O)(C(=O)OC)[C@H](OC(C)=O)[C@]5(CC)C=CCN6CC[C@]43[C@@H]65)C2)C1 [Vincristine] | 5.0
 | COc1cccc2c1C(=O)c1c(O)c3c(c(O)c1C2=O)C[C@@](O)(C(=O)CO)C[C@@H]3O[C@H]1C[C@H](N)[C@H](O)[C@H](C)O1 [Doxorubicin] | 4.0
 | COc1cc([C@@H]2c3cc4c(cc3[C@@H](O[C@@H]3O[C@@H]5CO[C@@H](c6cccs6)O[C@H]5[C@H](O)[C@H]3O)[C@H]3COC(=O)[C@H]23)OCO4)cc(OC)c1O [Teniposide] | 7.0

Compound | cell lifting from culture plates | Fold-increase of BMP-induced ALP (over BMP alone control)
O=C1c2c(O)ccc(O)c2C(=O)c2c(NCCNCCO)ccc(NCCNCCO)c21 [Mitoxantrone, mitoxantrone] | caused cell lifting from culture plates | 4.0
COc1cccc2c1C(=O)c1c(O)c3c(c(O)c1C2=O)C[C@@](O)(C(C)=O)C[C@@H]3O[C@H]1C[C@H](N)[C@H](O)[C@H](C)O1 [Daunorubicin hydrochloride] | caused cell lifting from culture plates | 7.0
